# Results taken from patent publication US9663526B2, “Aminopyrimidinyl compounds” (Pfizer Inc., priority 2014, dated 2017).
# Key:
# [1] = target: recombinant human kinase domain of TYK2 (Homo sapiens (Human), UniProt P29597); assay: JAK Caliper enzyme assay at 1 mM ATP (TYK2); format: biochemical; details: 1 mM ATP; read-out: IC50 (nM) TYK2;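 note: microfluidic mobility-shift readout of synthetic peptide phosphorylation by TYK2, tuned to 20–30% conversion at room temperature, reaction stopped with EDTA, DMSO-only wells as uninhibited baseline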
# [2] = target: recombinant human kinase domain of JAK2 (Homo sapiens (Human), UniProt O60674); assay: JAK Caliper enzyme assay at 1 mM ATP (JAK2); format: biochemical;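 note: microfluidic mobility-shift read-out of fluorescent synthetic peptide phosphorylation, percent product converted from peak heights, room temperature, DMSO-only wells as uninhibited baseline, inhibition curve fit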
# [3] = tested on: interferon alpha signalling (TYK2 and JAK1), STAT3 phosphorylation; assay: Human whole blood INFα induced STAT3 phosphorylation assay; format: cell-based; details: compound 60 minutes at 37° C., IFNα 5000 U/ml for 15 minutes, pSTAT3 in lymphocyte population by flow cytometry, read-out: HWB IFN alpha IC50;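 note: flow cytometry with anti-pSTAT3 staining, signal as percent-positive × mean fluorescence, baseline from unstimulated wells, 11-point dilution series, IC50 as inhibition of pSTAT3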
# [4] = target: recombinant human kinase domain of JAK3 (Homo sapiens (Human), UniProt P52333); assay: JAK Caliper enzyme assay at 1 mM ATP (JAK3); format: biochemical; details: 1 mM ATP; read-out: IC50 (nM) JAK3;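 note: microfluidic mobility-shift readout of synthetic peptide phosphorylation, percent product converted from peak heights, normalized to DMSO-only wells as uninhibited baseline, room temperature incubation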
# [5] = target: recombinant human kinase domain of JAK1 (Homo sapiens (Human), UniProt P23458); assay: JAK Caliper enzyme assay at 1 mM ATP (JAK1); format: biochemical; details: 1 mM ATP; read-out: IC50 (nM) JAK1;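 note: microfluidic mobility-shift readout of synthetic fluorescent peptide phosphorylation, percent product converted from peak height, inhibition relative to DMSO-only wells as uninhibited baseline, room temperature incubation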
# recombinant human kinase domain of JAK1, sequence (P23458 875-1153): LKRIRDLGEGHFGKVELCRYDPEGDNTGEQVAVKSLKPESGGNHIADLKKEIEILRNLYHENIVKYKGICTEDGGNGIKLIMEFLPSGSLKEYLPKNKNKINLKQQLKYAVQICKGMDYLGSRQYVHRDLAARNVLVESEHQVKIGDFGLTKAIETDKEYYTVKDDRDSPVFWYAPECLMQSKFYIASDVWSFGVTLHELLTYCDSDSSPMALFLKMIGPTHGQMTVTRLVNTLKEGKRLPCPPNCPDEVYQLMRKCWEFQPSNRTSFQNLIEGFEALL
# recombinant human kinase domain of TYK2, sequence (P29597 897-1176): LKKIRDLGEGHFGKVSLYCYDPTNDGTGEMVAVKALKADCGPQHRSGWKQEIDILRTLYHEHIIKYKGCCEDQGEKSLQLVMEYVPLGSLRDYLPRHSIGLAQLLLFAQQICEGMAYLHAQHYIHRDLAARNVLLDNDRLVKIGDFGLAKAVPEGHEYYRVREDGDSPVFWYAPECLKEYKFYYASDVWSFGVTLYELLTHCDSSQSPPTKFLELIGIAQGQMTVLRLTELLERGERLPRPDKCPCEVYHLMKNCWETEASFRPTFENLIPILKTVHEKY
# recombinant human kinase domain of JAK2, sequence (O60674 849-1124): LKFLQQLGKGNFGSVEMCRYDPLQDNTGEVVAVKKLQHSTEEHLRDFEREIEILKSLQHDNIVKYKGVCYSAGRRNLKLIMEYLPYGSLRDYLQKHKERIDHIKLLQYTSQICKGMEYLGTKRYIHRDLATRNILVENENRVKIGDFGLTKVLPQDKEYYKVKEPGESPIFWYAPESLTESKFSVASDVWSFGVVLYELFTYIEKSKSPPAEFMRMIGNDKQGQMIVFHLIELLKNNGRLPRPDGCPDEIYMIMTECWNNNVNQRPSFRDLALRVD
# recombinant human kinase domain of JAK3, sequence (P52333 822-1111): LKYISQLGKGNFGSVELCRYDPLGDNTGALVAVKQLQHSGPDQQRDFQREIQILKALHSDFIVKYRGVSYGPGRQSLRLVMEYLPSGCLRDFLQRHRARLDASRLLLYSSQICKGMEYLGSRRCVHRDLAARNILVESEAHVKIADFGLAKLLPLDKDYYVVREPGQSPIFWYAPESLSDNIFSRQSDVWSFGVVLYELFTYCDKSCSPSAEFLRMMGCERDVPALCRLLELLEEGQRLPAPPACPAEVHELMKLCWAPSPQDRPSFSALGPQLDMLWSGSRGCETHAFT
SMILES,IC50 [1] [nM],IC50 [2] [nM],IC50 [3] [nM],IC50 [4] [nM],IC50 [5] [nM]
"CCNC(=O)N1[C@@H]2CC[C@H]1CN(c1ccnc(Nc3cnsc3)n1)C2 [Example 74, (1R,5S)—N-ethyl-3-[2-(1,2-thiazol-4-ylamino)pyrimidin-4-yl]-3,8-diazabicyclo[3.2.1 l]octane-8-carboxamide]",65,691,213,> 10000,67
"CCNC(=O)N1[C@@H]2CC[C@H]1CN(c1ccnc(Nc3cnc(C(=O)NC)c(Cl)c3)n1)C2 [Example 75, (1R,5S)-3-(2-{[5-chloro-6-(methylcarbamoyl)pyridin-3-yl]amino}pyrimidin-4-yl)-N-ethyl-3,8-diazabicyclo[3.2.1]octane-8-carboxamide]",66,1290,751,> 10000,462
"N#CCCN1[C@@H]2CC[C@H]1CN(c1ccnc(Nc3cn[nH]c3)n1)C2 [Example 79, 3-{(1R,5S)-3-[2-(1H-pyrazol-4-ylamino)pyrimidin-4-yl]-3,8-diazabicyclo[3.2.1]oct-8-yl}propanenitrile]",34,406,65,8420,38
"CC(CC#N)N1[C@@H]2CC[C@H]1CN(c1ccnc(Nc3cnn(C)c3)n1)C2 (stereo partly drawn) [Example 80, 3-[(1R,5S)-3-{2-[(1-methyl-1H-pyrazol-4-yl)amino]pyrimidin-4-yl}-3,8-diazabicyclo[3.2.1 l]oct-8-yl]butanenitrile]",79,436,112,> 10000,190
"Cn1cc(Nc2nccc(N3C[C@H]4CC[C@@H](C3)N4C3(CC#N)COC3)n2)cn1 [Example 84, {3-[(1R,5S)-3-{2-[(1-methyl-1H-pyrazol-4-yl)amino]pyrimidin-4-yl}-3,8-diazabicyclo[3.2.1]oct-8-yl]oxetan-3-yl}acetonitrile]",62,155,156,> 10000,141
"CCNC(=O)N1[C@@H]2CC[C@H]1CN(c1ccnc(Nc3cnc(C(=O)NC)c(F)c3)n1)C2 [Example 87, (1R,5S)—N-ethyl-3-(2-{[5-fluoro-6-(methylcarbamoyl)pyridin-3-yl]amino}pyrimidin-4-yl)-3,8-diazabicyclo[3.2.1]octane-8-carboxamide]",93,1790,582,> 10000,337
CNC(=O)c1ncc(Nc2nccc(N3C[C@H]4CC[C@@H](C3)N4C(=O)NCC(F)(F)F)n2)cc1C [Example 89],9,65,118,4430,10
"CCNC(=O)N1[C@@H]2CC[C@H]1CN(c1ccnc(Nc3cnc(C(=O)NC)c(C)c3)n1)C2 [Example 91, (1R,5S)—N-ethyl-3-(2-{[5-methyl-6-(methylcarbamoyl)pyridin-3-yl]amino}pyrimidin-4-yl)-3,8-diazabicyclo[3.2.1]octane-8-carboxamide]",39,513,195,> 10000,183
"Cn1cc(Nc2ncc(F)c(N3C[C@@]4(CO)C[C@@]4(NC(=O)[C@@H]4C[C@H]4C#N)C3)n2)cn1 [Example 110, (1R,2R)-2-cyano-N-[(1S,5S)-3-{5-fluoro-2-[(1-methyl-1H-pyrazol-4-yl)amino]pyrimidin-4-yl}-5-(hydroxymethyl)-3-azabicyclo[3.1.0]hex-1-yl]cyclopropanecarboxamide]",58,455,146,928,29
"CCNC(=O)c1ccc(Nc2ncc(F)c(N3CC4CC(C3)N4C(=O)C(C)(C)F)n2)cc1C [Example 112, N-ethyl-4-({5-fluoro-4-[6-(2-fluoro-2-methylpropanoyl)-3,6-diazabicyclo[3.1.1]hept-3-yl]pyrimidin-2-yl}amino)-2-methylbenzamide]",21,3040,775,> 10000,4070
"CCNC(=O)c1ccc(Nc2nccc(N3CC4CC(C3)N4C(=O)C3CC3)n2)cc1C [Example 113, 4-({4-[6-(cyclopropylcarbonyl)-3,6-diazabicyclo[3.1.1]hept-3-yl]pyrimidin-2-yl}amino)-N-ethyl-2-methylbenzamide]",82,7860,939,> 10000,8580
"CCNC(=O)c1ccc(Nc2nccc(N3CC4CC(C3)N4C(=O)C(C)(F)F)n2)cc1 [Example 114, 4-({4-[6-(2,2-difluoropropanoyl)-3,6-diazabicyclo[3.1.1]hept-3-yl]pyrimidin-2-yl}amino)-N-ethylbenzamide]",62,1860,166,> 10000,955
"CCNC(=O)c1ccc(Nc2nccc(N3CC4CC(C3)N4C(=O)C(F)(F)F)n2)cc1C [Example 115, N-ethyl-2-methyl-4-({4-[6-(trifluoroacetyl)-3,6-diazabicyclo[3.1.1]hept-3-yl]pyrimidin-2-yl}amino)benzamide]",64,3310,234,> 10000,3790
